Experimental data taken from paper PMC12388884, “Discovery of Small-Molecule PD-L1 Inhibitors via Virtual Screening and Their Immune-Mediated Anti-Tumor Effects” (Pharmaceuticals, 2025).
Numbered stars: 1 amine (or outer) side, 2 acyl side, 3 side chain; on linkers, the order of the positions; unused ones are H or OH. Bridge positions count the residues as written; N and C are the ends. Square brackets hold non-standard residues; d marks the D form. Peptide text beside a SMILES is read from it. * marks the point of attachment. pTerphenylCO(4''-OnC5H11) = CCCCCOc1ccc(-c2ccc(-c3ccc(C(=O)*)cc3)cc2)cc1; Orn(4R-OH,5R-OH) = O=C([C@H](C[C@@H](O)[C@@H](O)N[*:3])N[*:1])[*:2]; hTyr(3S-OH,4S-OH) = N[C@H](C(=O)O)[C@H](O)[C@@H](O)c1ccc(O)cc1; Pro(3S-OH,4S-Me) = C[C@H]1CN[C@H](C(=O)O)[C@H]1O; Hyp = O=C(O)[C@@H]1C[C@@H](O)CN1

Biological target: T1, PD-L1 (Homo sapiens, UniProt Q9NZQ7)
T1 construct: gene CD274
Assay: bio-layer interferometry (BLI), immobilized recombinant human PD-L1, […] global kinetic fit
Assay type: binding

T1 sequence (Q9NZQ7 19-290): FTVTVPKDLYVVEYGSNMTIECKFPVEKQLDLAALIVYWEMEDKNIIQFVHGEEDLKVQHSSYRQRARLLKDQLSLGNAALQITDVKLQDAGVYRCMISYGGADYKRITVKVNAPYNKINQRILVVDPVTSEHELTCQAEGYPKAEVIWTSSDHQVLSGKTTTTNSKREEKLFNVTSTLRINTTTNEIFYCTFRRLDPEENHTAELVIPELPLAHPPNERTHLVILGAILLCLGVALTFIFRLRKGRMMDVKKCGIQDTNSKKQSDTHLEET

## CCCCCOc1ccc(-c2ccc(-c3ccc(C(=O)N[C@H]4C[C@@H](O)[C@@H](O)NC(=O)[C@@H]5[C@@H](O)[C@@H](C)CN5C(=O)[C@H]([C@@H](C)O)NC(=O)[C@H]([C@H](O)[C@@H](O)c5ccc(O)cc5)NC(=O)[C@@H]5C[C@@H](O)CN5C(=O)[C@H]([C@@H](C)O)NC4=O)cc3)cc2)cc1 [anidulafungin] ({pTerphenylCO(4''-OnC5H11)}-[Orn(4R-OH,5R-OH)]T[Hyp][hTyr(3S-OH,4S-OH)]T[Pro(3S-OH,4S-Me)]; lactam 1-C)
  Kd: 76.9 µM
